Measurements taken from US8951529B2, “Methods of using small compounds to enhance myeloid derived suppressor cell function for treating autoimmune diseases” (Icahn School of Medicine at Mount Sinai, priority 2009, dated 2015).

Tests used:
[1] = tested on: Gr-1+/CD115+ MDSCs; assay: HA-TCR T-cell proliferation with MDSCs and MAP kinase activator or inhibitors; type: cell-based, mouse; conditions: HA peptide, three days, viable T cell count, FIG. 13A
Experimental: To determine whether MAP kinase is involved in MDSC-mediated T cell suppression and Treg activation, monocytic MDSCs (Gr-1+/CD115+) were purified from spleen of tumor bearing mice and the suppressive function was evaluated. Purified T cells from HA-TCR transgenic T cells were cultured in the presence or absence of irradiated purified Gr-1+/CD115+ MDSCs from tumor-bearing mice, irradiated splenocytes from naïve mice as antigen presenting cells, anisomycin, various inhibitors, and HA peptide (0.5 μg/m1). Three days later, T cell proliferation was assessed by counting viable (trypan blue negative) total T cell number. Proliferation percentages were calculated by the number of experimental group divided by the number of T cell without MDSC, anisomycin or inhibitors (SB, PD). *p<0.05 by ANOVA t-test (FIG. 13A).

[2] = tested on: MDSCs; assay: Foxp3 RT-PCR of MDSC-activated T regulatory cells with MAP kinase activator or inhibitors; type: cell-based, mouse; conditions: FIG. 13B
Experimental: The expression of Foxp3 and actin (as internal control) was determined by RT-PCR in MDSC-activated T regulatory cells in the presence of p38 MAP kinase activator, anisomycin, p38 MAP kinase inhibitor, SB, and Erk inhibitor, PD (FIG. 13B).

[3] = tested on: DSS-induced colitis; assay: DSS-induced colitis in vivo model; design: species or system C57BL/6 mice; conditions: day 11, in comparison with naive healthy mice, FIG. 5C
Text: In certain aspects, the invention is related to the treatment of IBDs. Mouse models of IBD are well known in the art, and may be used to model human IBDs. For example, dextran sodium sulfate (DSS) may be administered to mice to induce IBD. In this model, mice are fed with water containing 3.5% DSS from day 0 to day 11. Following treatment, mice develop colitis. The severity of colitis is quantified (assigned a clinical score) by assessing stool consistency, bleeding, and weight loss, which ranges from 0 (healthy) to 4 (maximal severity). Histologically, DSS produces submucosal erosions, ulceration, inflammatory cell infiltration and crypt abscess as well as epithelioglandular hyperplasia. […] [Kawada et al., 2007, World J. Gastroenterol. 13: 5581-5593; Okayasu et al., 1990, Gastroenterology 98:694-702]
For adoptive transfer of MDSCs, 5×10^6 purified MDSCs suspended in PBS were administered by intravenous infusion at day 0 and day 7.
Mice were left untreated or treated with sorted MDSCs (5×10^6 cells/mouse) alone or in combination with GA and/or SP600125 (Sigma-Aldrich), on the day of disease induction. […] The severity of colitis was quantitated as a clinical score by assessing stool consistency, bleeding, and weight loss, which ranges from 0 (healthy) to 4 (maximal severity). The clinical score (weight loss, stool consistency, and bleeding) of treated mice was assessed in a double-blind fashion.
On day 11 post-IBD induction, colon tissues from treated mice were removed, fixed in 3% formaldehyde, sectioned, and stained with H&E staining to determine the pathology score of colitis. To reflect the general condition of the mice, a disease activity index (DAI) was determined by an investigator blinded to the protocol by scoring the extent of body weight loss, stool guaiac positivity or gross bleeding, and stool consistency according to the method described in Murthy et al. (1993) “Treatment of Dextran Sulfate Sodium-Induced Murine Colitis by Intracolonic Cyclosporin,” Digest. […] Stool consistency and the degree of blood in stool were evaluated on the day when animals were killed. […]

SMILES	MDSC suppression of HA-TCR T-cell proliferation [1]	Treg induction by MDSCs as assessed by Foxp3 expression by RT-PCR [2]	decrease in colonic length [3] [%]
COc1cccc(-c2cc(=O)c3ccccc3o2)c1N [PD98059, 2-(2-Amino-3-methoxyphenyl)-4H-1-benzopyran-4-one]	not reverted or enhanced	not significantly different	–
C[S+]([O-])c1ccc(-c2nc(-c3ccc(F)cc3)c(-c3ccncc3)[nH]2)cc1 (stereo not shown) [SB203580, 4-(4-Fluorophenyl)-2-(4-methylsulfinylphenyl)-5-(4-pyridyl)-1H-imidazole]	not reverted or enhanced	not significantly different	–
Oc1c2ccccc2c2c3c(cccc13)N=N2 [SP600125, 1,9-Pyrazoloanthrone]	–	–	51.6
COc1ccc(C[C@H]2NC[C@H](O)[C@H]2OC(C)=O)cc1 [anisomycin]	reverted the suppressive activity	decreased Treg induction	–
